Results taken from patent publication US11590142B2, “Oxazolidinone antibiotic compounds and process of preparation” (Bugworks Research, Inc., priority 2018, dated 2023).
Values after ≈ are worked out from the molar mass of the structure shown.

Experiments:
Format in all cases: cell-based
[1] = tested on: Acinetobacter baumannii ATCC 19606; experiment: Minimum Inhibitory Concentration (MIC) in LB media; details: ATCC19606
Method: (§1) Biological Activity (Antibacterial activity): The compounds of Formula (I) are of interest due to their potent antibacterial effects. […] The medium sterility is checked by incubating at 37° C. for a period of 48 h. Bacterial cultures that are stored as glycerol stocks at -80° C. are sub cultured on LB agar plates to obtain isolated colonies. A single colony of each strain is cultured in LB broth. The cultures are incubated at 37° C., 200 rpm till they reach an optical density (OD at 600 nm) of 0.8 to 1. […] Test compounds are dissolved in dimethyl sulfoxide (DMSO) to a stock concentration of 4 mg/mi. A twofold dilution series of this DMSO stock is prepared in a 96 well V bottom microtitre plate from rows A to H. A 3 μL volume of these dilutions are transferred to a 96-well flat bottom microtitre assay plate. Controls to monitor the effects of DMSO and media sterility are included. Each well is inoculated with 150 μL of the above diluted culture. The plates are incubated at 37° C. overnight in a humidified incubator. The following morning, the plates are read using a Spectrophotometer at 600 nm wavelength.

[2] = tested on: Enterococcus faecalis ATCC 29212; experiment: Minimum Inhibitory Concentration (MIC) in LB media; details: ATCC29212, read-out: Minimum Inhibitory Concentration E. faecalis ATCC 29212
Method: as §1

[3] = tested on: Escherichia coli ATCC 25922; experiment: Minimum Inhibitory Concentration (MIC) in LB media; details: ATCC25922, read-out: Minimum Inhibitory Concentration E. coli ATCC 25922
Method: as §1

[4] = tested on: Klebsiella pneumoniae ATCC 13883; experiment: Minimum Inhibitory Concentration (MIC) in LB media; details: ATCC13883, read-out: Minimum Inhibitory Concentration K. pneumoniae ATCC 13883
Method: as §1

[5] = tested on: Pseudomonas aeruginosa ATCC 27853; experiment: Minimum Inhibitory Concentration (MIC) in LB media; details: ATCC27853, read-out: Minimum Inhibitory Concentration P. aurigenosa ATCC 27853
Method: as §1

[6] = tested on: Staphylococcus aureus ATCC 29213; experiment: Minimum Inhibitory Concentration (MIC) in LB media; details: ATCC29213, read-out: Minimum Inhibitory Concentration S. aureus ATCC 29213
Method: as §1

[7] = molecular target: human ether a go-go related gene (hERG) K+ channel (Homo sapiens (Human), UniProt Q12809); experiment: hERG inhibition assay, QPatch HTX automated electrophysiology; details: CHO cell line stably expressing hERG, whole-cell patch clamp, maximum test concentration 300 μM
Method: The compounds were tested for inhibition of the human ether a go-go related gene (hERG) K+ channel using QPatch HTX automated electrophysiology. […] Compounds were solubilised to 100 mM in DMSO before dilution in HBPS to 300 μM. […] Electrophysiological recordings were made from a Chinese Hamster Ovary cell line stably expressing the full-length hERG potassium channel. Single cell ionic currents were measured in whole-cell patch clamp configuration at room temperature (21-23° C.) using the QPatch HTX platform (Sophion). Intracellular solution contained (mM): 120 KF, 20 KCl, 10 EGTA, 10 HEPES and was buffered to pH 7.3. […] Cells were clamped at a holding potential of −80 mV. Cells were stepped to +20 mV for 2 s then −40 mV for 3s before returning to the holding potential. This sweep was repeated 10 times at 10 s intervals. hERG currents were measured from the tail step and referenced to the holding current. Compounds were then incubated for 2 minutes prior to a second measurement of ion channel current using an identical pulse train.

[8] = tested on: E. coli clinical strains; experiment: Antibacterial susceptibility studies (MIC50 and MIC90), clinical strains, CLSI guidelines
[9] = tested on: A. baumannii clinical strains; experiment: as above
[10] = tested on: K. pneumoniae clinical strains; experiment: as above
[11] = tested on: P. aurigenosa clinical strains; experiment: as above
[12] = tested on: E. cloacae clinical strains; experiment: as above
[13] = tested on: E. coli ATCC25922; experiment: Antibacterial susceptibility study, reference strain, CLSI guidelines
[14] = tested on: A. baumannii ATCC19606; experiment: as above
[15] = tested on: K. pneumoniae ATCC13883; experiment: as above
[16] = tested on: P. aurigenosa ATCC27853; experiment: as above

Chain of human ether a go-go related gene (hERG) K+ channel (Q12809 whole entry): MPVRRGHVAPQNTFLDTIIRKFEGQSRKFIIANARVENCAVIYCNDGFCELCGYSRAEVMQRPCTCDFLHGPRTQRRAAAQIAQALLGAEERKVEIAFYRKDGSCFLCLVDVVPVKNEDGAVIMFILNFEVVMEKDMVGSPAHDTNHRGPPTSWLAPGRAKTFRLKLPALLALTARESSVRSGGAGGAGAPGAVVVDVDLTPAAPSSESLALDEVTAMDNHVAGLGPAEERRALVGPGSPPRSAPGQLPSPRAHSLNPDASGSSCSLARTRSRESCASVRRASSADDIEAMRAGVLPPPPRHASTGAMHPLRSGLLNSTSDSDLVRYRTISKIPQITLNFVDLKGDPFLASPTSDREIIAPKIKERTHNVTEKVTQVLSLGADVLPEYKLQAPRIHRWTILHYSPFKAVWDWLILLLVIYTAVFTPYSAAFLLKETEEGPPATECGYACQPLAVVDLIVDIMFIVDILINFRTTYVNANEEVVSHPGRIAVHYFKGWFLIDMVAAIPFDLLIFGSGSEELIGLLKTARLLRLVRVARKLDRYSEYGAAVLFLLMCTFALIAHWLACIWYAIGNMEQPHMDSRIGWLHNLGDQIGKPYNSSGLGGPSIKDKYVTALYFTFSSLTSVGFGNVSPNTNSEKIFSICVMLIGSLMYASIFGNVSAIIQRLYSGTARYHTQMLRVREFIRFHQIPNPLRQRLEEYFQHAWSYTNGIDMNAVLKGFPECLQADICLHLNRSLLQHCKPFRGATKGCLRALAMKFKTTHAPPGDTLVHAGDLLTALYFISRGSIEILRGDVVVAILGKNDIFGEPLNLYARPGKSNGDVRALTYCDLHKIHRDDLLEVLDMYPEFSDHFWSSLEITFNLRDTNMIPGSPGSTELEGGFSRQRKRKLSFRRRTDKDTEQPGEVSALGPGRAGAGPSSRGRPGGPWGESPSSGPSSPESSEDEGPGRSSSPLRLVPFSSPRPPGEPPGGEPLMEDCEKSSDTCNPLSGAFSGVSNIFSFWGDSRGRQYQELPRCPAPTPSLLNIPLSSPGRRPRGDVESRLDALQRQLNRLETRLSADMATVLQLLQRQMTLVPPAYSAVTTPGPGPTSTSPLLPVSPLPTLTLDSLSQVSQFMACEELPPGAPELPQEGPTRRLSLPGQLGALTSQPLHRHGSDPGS

| SMILES | MIC [1] | MIC [2] | MIC [3] | MIC [4] | MIC [5] | MIC [6] | IC50 [7] | further results |
| --- | --- | --- | --- | --- | --- | --- | --- | --- |
| Cn1c(=O)ccc2ncc(OCCNC[C@H]3CN(c4ccc5c(n4)NC(=O)CO5)C(=O)O3)nc21 [Compound 5, (S)-6-(5-(((2-((5-methyl-6-oxo-5,6-dihydropyrido[2,3-b]pyrazin-3-yl)oxy)ethyl)amino)methyl)-2-oxooxazolidin-3-yl)-2H1-pyrido[3,2-b][1,4]oxazin-3(4H)-one] | 0.25 µg/mL (≈ 0.535 µM) | 0.5 µg/mL (≈ 1.07 µM) | 0.25 µg/mL (≈ 0.535 µM) | 0.25 µg/mL (≈ 0.535 µM) | 4 µg/mL (≈ 8.56 µM) | 0.25 µg/mL (≈ 0.535 µM) | 82 µM |  |
| Cn1c(=O)cnc2ccc(OCCNCCC3CN(c4ccc5c(n4)NC(=O)CO5)C(=O)O3)nc21 (centres unmarked) [Compound 1, 6-(5-(2-((2-((4-methyl-3-oxo-3,4-dihydropyrido[2,3-b]pyrazin-6-yl)oxy)ethyl)amino)ethyl)-2-oxooxazolidin-3-yl)-2H-pyrido[3,2-b][1,4]oxazin-3(4H)-one] | 0.06 µg/mL (≈ 0.125 µM) | 0.5 µg/mL (≈ 1.04 µM) | 0.06 µg/mL (≈ 0.125 µM) | 0.25 µg/mL (≈ 0.519 µM) | 1 µg/mL (≈ 2.08 µM) | 0.13 µg/mL (≈ 0.27 µM) |  |  |
| Cn1c(=O)ccc2ncc(OCCNC[C@@H]3CN(c4ccc5c(n4)NC(=O)CO5)C(=O)O3)nc21 [Compound 6, (R)-6-(5-(((2-((5-methyl-6-oxo-5,6-dihydropyrido[2,3-b]pyrazin-3-yl)oxy)ethyl)amino)methyl)-2-oxooxazolidin-3-yl)-2H-pyrido[3,2-b][1,4]oxazin-3(4H)-one] | 0.13 µg/mL (≈ 0.278 µM) | 0.25 µg/mL (≈ 0.535 µM) | 0.13 µg/mL (≈ 0.278 µM) | 0.25 µg/mL (≈ 0.535 µM) | 2 µg/mL (≈ 4.28 µM) | 0.13 µg/mL (≈ 0.278 µM) | 60 µM |  |
| Cn1c(=O)ccc2ncc(OCCNCCC3CN(c4ccc5c(n4)NC(=O)CO5)C(=O)O3)nc21 (centres unmarked) [Compound 2, 6-(5-(2-((2-((5-methyl-6-oxo-5,6-dihydropyrido[2,3-b]pyrazin-3-yl)oxy)ethyl)amino)ethyl)-2-oxooxazolidin-3-yl)-2H-pyrido[3,2-b][1,4]oxazin-3(4H)-one] | 0.06 µg/mL (≈ 0.125 µM) | 1 µg/mL (≈ 2.08 µM) | 0.13 µg/mL (≈ 0.27 µM) | 0.25 µg/mL (≈ 0.519 µM) | 0.5 µg/mL (≈ 1.04 µM) | 0.06 µg/mL (≈ 0.125 µM) |  |  |
| C[C@@H](O)[C@H]1C(=O)N2C(C(=O)O)=C(S[C@@H]3CN[C@H](C(=O)N(C)C)C3)[C@H](C)[C@H]12 [Meropenem, reference compound] |  |  |  |  |  |  |  | MIC50 [8]: 0.06 µg/mL (≈ 0.156 µM); MIC90 [8]: 4 µg/mL (≈ 10.4 µM); Minimum (MIC) [8]: 0.03 µg/mL; MIC50 [9]: 8 µg/mL (≈ 20.9 µM); MIC90 [9]: 32 µg/mL (≈ 83.4 µM); Minimum (MIC) ([9]; in µg/mL): 0.03125; MIC50 [10]: 1 µg/mL (≈ 2.61 µM); MIC90 [10]: 16 µg/mL (≈ 41.7 µM); Minimum (MIC) [10]: 0.03 µg/mL; MIC50 [11]: 2 µg/mL (≈ 5.22 µM); MIC90 [11]: 8 µg/mL (≈ 20.9 µM); Minimum (MIC) [11]: 0.03 µg/mL; MIC50 [12]: 0.25 µg/mL (≈ 0.652 µM); MIC90 [12]: 16 µg/mL (≈ 41.7 µM); Minimum (MIC) [12]: 0.06 µg/mL; ATCC25922 (MIC) [13]: 0.06 µg/mL; ATCC19606 (MIC) [14]: 0.5 µg/mL; ATCC13883 (MIC) [15]: 0.06 µg/mL; ATCC27853 (MIC) [16]: 0.5 µg/mL |
| O=C(O)c1cn(C2CC2)c2cc(N3CCNCC3)c(F)cc2c1=O [Ciprofloxacin, reference compound] | 0.4 µg/mL (≈ 1.21 µM) | 0.4 µg/mL (≈ 1.21 µM) | 0.012 µg/mL (≈ 0.0362 µM) | 0.05 µg/mL (≈ 0.151 µM) | 0.1 µg/mL (≈ 0.302 µM) | 0.4 µg/mL (≈ 1.21 µM) |  |  |

Further lines, with some results ahead:

| MIC [1] | MIC [2] | MIC [3] | MIC [4] | MIC [5] | MIC [6] | SMILES | IC50 [7] | further results |
| --- | --- | --- | --- | --- | --- | --- | --- | --- |
| 0.06 µg/mL (≈ 0.128 µM) | 0.25 µg/mL (≈ 0.535 µM) | 0.06 µg/mL (≈ 0.128 µM) | 0.25 µg/mL (≈ 0.535 µM) | 2 µg/mL (≈ 4.28 µM) | 0.06 µg/mL (≈ 0.128 µM) | Cn1c(=O)cnc2ccc(OCCNC[C@@H]3CN(c4ccc5c(n4)NC(=O)CO5)C(=O)O3)nc21 [Compound 4, (R)-6-(5-(((2-((4-methyl-3-oxo-3,4-dihydropyrido[2,3-b]pyrazin-6-yl)oxy)ethyl)amino)methyl)-2-oxooxazolidin-3-yl)-2H-pyrido[3,2-b][1,4]oxazin-3(4H)-one] | 38 µM |  |
| 0.06 µg/mL (≈ 0.128 µM) | 0.25 µg/mL (≈ 0.535 µM) | 0.06 µg/mL (≈ 0.128 µM) | 0.25 µg/mL (≈ 0.535 µM) | 2 µg/mL (≈ 4.28 µM) | 0.06 µg/mL (≈ 0.128 µM) | Cn1c(=O)cnc2ccc(OCCNC[C@H]3CN(c4ccc5c(n4)NC(=O)CO5)C(=O)O3)nc21 [Compound 3, (S)-6-(5-(((2-((4-methyl-3-oxo-3,4-dihydropyrido[2,3-b]pyrazin-6-yl)oxy)ethyl)amino)methyl)-2-oxooxazolidin-3-yl)-2H1-pyrido[3,2-b][1,4]oxazin-3(4H)-one] | 40 µM |  |
| 0.5 µg/mL (≈ 1.04 µM) | 1 µg/mL (≈ 2.07 µM) | 0.125 µg/mL (≈ 0.259 µM) | 0.5 µg/mL (≈ 1.04 µM) | 2 µg/mL (≈ 4.15 µM) | 0.03 µg/mL (≈ 0.0622 µM) | CCn1c(=O)cnc2ccc(OCCNC[C@H]3CN(c4cnc5c(n4)NC(=O)CO5)C(=O)O3)nc21 [Compound 11, (S)-6-(5-(((2-((4-ethyl-3-oxo-3,4-dihydropyrido[2,3-b]pyrazin-6-yl)oxy)ethyl)amino)methyl)-2-oxooxazolidin-3-yl)-2H-pyrazino[2,3-b][1,4]oxazin-3(4H)-one] |  |  |
| 0.5 µg/mL (≈ 1.03 µM) | 0.25 µg/mL (≈ 0.514 µM) | 0.06 µg/mL (≈ 0.123 µM) | 0.25 µg/mL (≈ 0.514 µM) | 1 µg/mL (≈ 2.06 µM) | 0.06 µg/mL (≈ 0.123 µM) | Cn1c(=O)cnc2cc(F)c(OCCNC[C@H]3CN(c4cnc5c(n4)NC(=O)CO5)C(=O)O3)nc21 [Compound 10, (S)-6-(5-(((2-((7-fluoro-4-methyl-3-oxo-3,4-dihydropyrido[2,3-b]pyrazin-6-yl)oxy)ethyl)amino)methyl)-2-oxooxazolidin-3-yl)-2H-pyrazino[2,3-b][1,4]oxazin-3(4H)-one] | > 300 µM |  |
| 0.5 µg/mL (≈ 1.07 µM) | 0.5 µg/mL (≈ 1.07 µM) | 0.06 µg/mL (≈ 0.128 µM) | 0.25 µg/mL (≈ 0.534 µM) | 1 µg/mL (≈ 2.13 µM) | 0.125 µg/mL (≈ 0.267 µM) | Cn1c(=O)cnc2ccc(OCCNC[C@@H]3CN(c4cnc5c(n4)NC(=O)CO5)C(=O)O3)nc21 [Compound 8, (R)-6-(5-(((2-((4-methyl-3-oxo-3,4-dihydropyrido[2,3-b]pyrazin-6-yl)oxy)ethyl)amino)methyl)-2-oxooxazolidin-3-yl)-2H1-pyrazino[2,3-b][1,4]oxazin-3(4H)-one] | > 300 µM |  |
| 0.5 µg/mL (≈ 0.994 µM) | 0.25 µg/mL (≈ 0.497 µM) | 0.125 µg/mL (≈ 0.249 µM) | 0.25 µg/mL (≈ 0.497 µM) | 4 µg/mL (≈ 7.95 µM) | 0.125 µg/mL (≈ 0.249 µM) | Cn1c(=O)cnc2cc(Cl)c(OCCNC[C@H]3CN(c4cnc5c(n4)NC(=O)CO5)C(=O)O3)nc21 [Compound 12, (S)-6-(5-(((2-((7-Chloro-4-methyl-3-oxo-3,4-dihydropyrido[2,3-b]pyrazin-6-yl)oxy)ethyl)amino)methyl)-2-oxooxazolidin-3-yl)-2H-pyrazino[2,3-b][1,4]oxazin-3(4H)-one] | 98 µM |  |
| 0.03 µg/mL (≈ 0.0619 µM) | 0.1 µg/mL (≈ 0.206 µM) | 0.03 µg/mL (≈ 0.0619 µM) | 0.03 µg/mL (≈ 0.0619 µM) | 0.5 µg/mL (≈ 1.03 µM) | ≤ 0.03 µg/mL | Cn1c(=O)cnc2ccc(OCCNC[C@H]3CN(c4cnc5c(n4)NC(=O)CS5)C(=O)O3)nc21 [Compound 13, (S)-5-(((2-((4-Methyl-3-oxo-3,4-dihydropyrido[2,3-b]pyrazin-6-yl)oxy)ethyl)amino)methyl)-3-(3-oxo-3,4-dihydro-2H-pyrazino[2,3-b][1,4]thiazin-6-yl)oxazolidin-2-one] |  |  |
